Common to all, as to test: inhibition of tumour cell growth, NCI panel, 48 h
For experiment [1], the system named is SN12C renal.
For experiment [2], the system named is UACC-257 melanoma.
The subject of experiment [3] is SW-620 colon.
Experiment [4] relates to UACC-62 melanoma.
Experiment [5] deals with OVCAR-5 ovarian.
The subject of experiment [6] is SK-MEL-5 melanoma.
Experiment [7] concerns SNB-75 CNS.
Experiment [8] concerns NCI-H23 lung.
Experiment [9] has as its system M14 melanoma.
In experiment [10] the test system is CAKI-1 renal.

These results are taken from PubChem BioAssay (NCI).

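Grown in 96-well plates, cells were treated for 48 hours with each compound at five concentrations. Insufficient inhibition: endpoint recorded as highest concentration tested. Here, GI50 denotes the concentration required for 50% inhibition of growth. Definition used: TGI = concentration required for complete inhibition of growth.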

In the case of `CN=C1SC(=Nc2ccc(N(C)C)cc2)N1C`, the TGI in experiment [1], in experiment [2], in [3], in experiment [4], in [5] and in experiment [6] was > 100 µM throughout. Moreover, the figures for the TGI in [7], in experiment [8] and in experiment [9] were 49.1 µM, > 100 µM and > 100 µM, respectively.

As for `COc1ccc(Cn2c(Cl)c(/C=C3/C(=O)Nc4ccccc43)c3cc(OC)c(C)cc32)cc1`, the GI50 is 8.17 µM in experiment [1]; 55.3 µM in experiment [2]; 3.46 µM in experiment [3]; 2.17 µM in [4]; 6.06 µM in experiment [5]; 5.81 µM in experiment [10]. Besides, the results for the GI50 in experiment [6], in experiment [8] and in experiment [9] were 2.44 µM, 4.78 µM and 3.27 µM, respectively. The TGI in experiment [1] is > 100 µM; in [2], > 100 µM; in experiment [3] it was > 100 µM; in [4] it was 18.7 µM; in experiment [5], > 100 µM; in [10], > 100 µM. Moreover, the TGI in experiment [6] is 16 µM; in experiment [8] it was > 100 µM; in [9], 15 µM.

For `O=C1C2Cc3ccccc3CN2C(=O)N1CCN1CCCC1` (stereo unspecified), the TGI in [1], in experiment [3], in experiment [4], in experiment [5], in [10] and in experiment [6] was > 100 µM each time. Further, the TGI in [8] and in experiment [9] was > 100 µM each time.

For `COC1CC(OC(=O)c2ccccc2)C(OC(=O)c2ccccc2)C(C)O1` (stereo unspecified), the TGI in experiment [1], in experiment [2], in [3], in experiment [4], in [5] and in experiment [10] was > 100 µM each time. The TGI in experiment [6], in experiment [8] and in experiment [9] was > 100 µM in each case.

Turning to `CCN1CSC(=S)N(CC)C1`, the TGI in [1], in experiment [2], in experiment [3], in experiment [4], in [5] and in experiment [6] was > 100 µM throughout. Moreover, the TGI in [7], in [8] and in experiment [9] was > 100 µM each time.

On to `Fc1cccc(Cl)c1/C=N\N=C1c2ccccc2-c2ccccc21`, for which the TGI in experiment [1], in experiment [2], in experiment [3], in experiment [4], in experiment [5] and in [10] was > 100 µM in each case. Besides, the TGI in [6], in [8] and in experiment [9] was > 100 µM in each case.

As to `COc1cc(Br)c(C=Nc2cccc3ccc(OS(=O)(=O)c4cccc([N+](=O)[O-])c4)cc23)cc1OC`, the TGI in experiment [1], in experiment [2], in experiment [3], in experiment [4], in experiment [5] and in experiment [10] was > 100 µM in each case. In addition, the TGI is > 100 µM in experiment [6] and 44.8 µM in [8].

For the molecule `CC(=O)OC1[C@H]2c3cc4c(cc3CN3CCC(=C[C@@H]1O)C23)OCO4` (stereo partly specified), the TGI in [1], in [2], in experiment [3], in experiment [4], in experiment [7] and in [8] was > 100 µM in each case. In addition, the TGI in [9] was > 100 µM.

In the case of `CCOc1ccccc1NC(=O)CCc1nc(=S)[nH][nH]1`, the TGI in [1], in experiment [2], in [3], in experiment [4], in [5] and in [10] was > 100 µM each time. The TGI in experiment [6], in experiment [8] and in [9] was > 100 µM throughout.

`BrC1(Br)C2/C=C\CCCCC21` (stereo unspecified): the TGI in [1], in experiment [2], in [3], in [5], in experiment [10] and in [8] was > 100 µM throughout.

As to `O=C(OC[C@H]1O[C@@H](OC(=O)c2cc(O)c(O)c(O)c2)[C@H](OC(=O)c2cc(O)c(O)c(O)c2)[C@@H](OC(=O)c2cc(O)c(O)c(O)c2)[C@@H]1OC(=O)c1cc(O)c(O)c(O)c1)c1cc(O)c(O)c(O)c1`, the TGI was > 100 µM in experiment [1]; 65 µM in experiment [2]; > 100 µM in experiment [3]; 6.44 µM in [4]; 52.5 µM in experiment [5]; 85.6 µM in experiment [10]. In addition, the TGI in experiment [6] came out at 24.2 µM; in [8], 7.71 µM; in experiment [9] it was 24.4 µM.
